Measured values published in patent US20260284100A1, “USE OF SULFATED GLUCO-GALACTOOLIGOSACCHARIDE IN PREPARATION OF DRUGS FOR TREATING ATOPIC DERMATITIS” (Nanjing University of Science and Technology, priority 2025, published 2026).

Key:
IL-4 [1] = assay: qRT-PCR of IL-4 mRNA in ear and dorsal skin of DNCB-induced AD mice; format: in vivo, mouse (female BALB/c); conditions: dorsal and ear skin tissues; 5 and 20 g/L topical, compared with DNCB group
Experimental: (§1) Female BALB/c mice (6-8 weeks old) provided by the Comparative Medicine Center of Yangzhou University were used in the experiment. All mice were housed under standard feeding conditions with a 12-hour light-dark cycle, and food and water were freely accessible to them. To establish the atopic dermatitis mouse model, the hair on the back of the mice was removed using a shaver and depilatory cream on Day 0 of the experiment. On Day 1 of the experiment, 100 μL of 20 g/L DNCB was applied to the back and 10 μL to the ear of each mouse to induce atopic dermatitis. On Day 5, 8 and 11 of the experiment, 100 μL of 5 g/L DNCB was applied to the back, 10 μL to the ear of each mouse every morning to challenge atopic dermatitis. The mice were euthanized 24 hours after the final challenge. […]
(§2) After all the mice were euthanized, an appropriate amount of ear and dorsal skin tissues was harvested. […] Real-time fluorescent quantitative PCR (qRT-PCR) was performed to specifically detect the expression of IL-1β, IL-4, IL-8 and TSLP.

DNCB-induced AD mice [2] = assay: Weight of spleens and lymph nodes in DNCB-induced AD mice; format: in vivo, mouse (female BALB/c); conditions: for average weight of the lymph nodes: DNCB group 16.4; for average weight of the spleen: DNCB group 221
Experimental: (§3) Female BALB/c mice (6-8 weeks old) provided by the Comparative Medicine Center of Yangzhou University were used in the experiment. All mice were housed under standard feeding conditions with a 12-hour light-dark cycle, and food and water were freely accessible to them. To establish the atopic dermatitis mouse model, the hair on the back of the mice was removed using a shaver and depilatory cream on Day 0 of the experiment. On Day 1 of the experiment, 100 μL of 20 g/L DNCB was applied to the back and 10 μL to the ear of each mouse to induce atopic dermatitis. On Day 5, 8 and 11 of the experiment, 100 μL of 5 g/L DNCB was applied to the back, 10 μL to the ear of each mouse every morning to challenge atopic dermatitis. The mice were euthanized 24 hours after the final challenge.
(§4) 5 days after the establishment of the atopic dermatitis model, the mice were randomly divided into 4 groups (6 mice per group): a) normal control group (Ctrl group); b) model group (DNCB group), where 100 μL of normal saline was applied to the back and 10 μL to the ear of each mouse every day; c) low-dose group (DNCB+LSRO group), where 100 μL of 5 g/L aqueous solution of sulfated gluco-galactooligosaccharide was applied to the back of each mouse every day, and 10 μL of 5 g/L aqueous solution of sulfated gluco-galactooligosaccharide was applied to the ear of each mouse every day; and d) high-dose group (DNCB+HSRO group), where 100 μL of 20 g/L aqueous solution of sulfated gluco-galactooligosaccharide was applied to the back of each mouse every day, and 10 μL of 20 g/L aqueous solution of sulfated gluco-galactooligosaccharide was applied to the ear of each mouse every day. The skin condition of the mice was recorded daily.
After the mice were euthanized, the spleens and lymph nodes of the mice in each group were harvested and weighed.

IL-1β = assay: qRT-PCR of IL-1β mRNA in ear and dorsal skin of DNCB-induced AD mice; format: in vivo, mouse (female BALB/c); conditions: dorsal and ear skin tissues; 5 and 20 g/L topical, compared with DNCB group
Experimental: as §1, §2

[3] = prior studies by the inventors (Carbohydrate Polymers 2025, 347:122782; CN 114533756 A); cited from earlier work
[4] = system: mast cells in skin tissues; assay: Skin histology, toluidine blue (TBO) staining, mast cell number; format: in vivo, mouse (female BALB/c); conditions: dorsal skin, DNCB group 56
Experimental: as §1

IL-8 = assay: qRT-PCR of IL-8 mRNA in ear and dorsal skin of DNCB-induced AD mice; format: in vivo, mouse (female BALB/c); conditions: dorsal and ear skin tissues; 5 and 20 g/L topical, compared with DNCB group
Experimental: as §1, §2

[5] = Body weight in DNCB-induced AD mice; format: in vivo, mouse (female BALB/c); conditions: different-dose treatment groups (5 and 20 g/L topical); DNCB group decreased significantly
Experimental: as §1
(§5) The skin of the mice was photographed at the same time every day to record the skin condition, and the body weight of the mice was measured.

[6] = system: HaCaT cells stimulated by TNF-α/IFN-γ; assay: mRNA expression of inflammatory cytokines in HaCaT cells stimulated by TNF-α/IFN-γ; format: cell-based, human; conditions: TNF-α/IFN-γ 10 ng/ml 18 h, then 100 or 200 μg/mL for 6 h
Experimental: HaCaT cells were used in the experiment, and their culture was carried out in high-glucose DMEM medium containing 10% fetal bovine serum, 1% streptomycin, and 1% erythromycin. The cells were incubated in a carbon dioxide incubator at 37° C. and passaged using trypsin digestion.
• 1) HaCaT cells were uniformly seeded in 6-well plates at a density of 5×10^5 cells per well. Control group and experimental groups were set up, namely the Ctrl group, TNF-α+IFN-γ group, LSRO+TNF-α+IFN-γ group and HSRO+TNF-α+IFN-γ group. • 2) TNF-α/IFN-γ (10 ng/ml) was added to the TNF-α+IFN-γ, LSRO+TNF-α+IFN-γ and HSRO+TNF-α+IFN-γ groups, respectively, while an equal volume of PBS solution (pH=7.2) was added to the Ctrl group. The plates were shaken crosswise to mix thoroughly, followed by incubation at 37° C. for 18 h in a carbon dioxide incubator. • 3) PBS, PBS, 100 μg/mL and 200 μg/mL sulfated gluco-galactooligosaccharide were added to the Ctrl, TNF-α+IFN-γ, LSRO+TNF-α+IFN-γ and HSRO+TNF-α+IFN-γ groups, respectively. The 6-well plates were placed in a carbon dioxide incubator at 37° C., and the cells were harvested after 6 h of incubation.
HaCaT cells were harvested, followed by RNA extraction and reverse transcription into cDNA. The expression levels of related genes such as IL-4, IL-6 and TNF-α were detected via fluorescent quantitative PCR. […]

TSLP = assay: qRT-PCR of TSLP mRNA in ear and dorsal skin of DNCB-induced AD mice; format: in vivo, mouse (female BALB/c); conditions: dorsal and ear skin tissues; 5 and 20 g/L topical, compared with DNCB group
Experimental: as §1, §2

DNCB-induced AD mice [7] = assay: Skin histology, H&E staining, in DNCB-induced AD mice; format: in vivo, mouse (female BALB/c); conditions: treatment groups (5 and 20 g/L topical) compared with DNCB group
Experimental: as §1

DNCB-induced AD mice [8] = assay: Dorsal skin inflammatory lesions (daily photographs) in DNCB-induced AD mice; format: in vivo, mouse (female BALB/c); conditions: treatment groups (5 and 20 g/L topical) compared with DNCB group
Experimental: as §1, §5

DNCB-induced AD mice [9] = assay: Ear and dorsal skin thickness in DNCB-induced AD mice; format: in vivo, mouse (female BALB/c); conditions: for average ear skin thickness: DNCB group 0.44; for average dorsal skin thickness: DNCB group 785
Experimental: as §3, §4
The ear thickness was accurately measured every day using an electronic caliper. Before the mice were euthanized, the thickness of the dorsal skin was measured with a caliper. Three measurements were taken at different positions on the mid-back, near the neck, and near the tail, and the average value was taken as the final measurement result.

DNCB-induced AD mice [10] = assay: Scratching behavior test in DNCB-induced AD mice; format: in vivo, mouse (female BALB/c); conditions: DNCB group 107
Experimental: as §1
Prior to the start of the experiment, the mice were allowed to acclimatize to the cages for 1 hour to ensure they could relax and display normal behavioral patterns. During this period, the behavior of the mice scratching the skin of their neck, ears and back with their paws was closely observed and recorded.

IL-4 [11] = assay: Determination of IL-4 in serum (ELISA) of DNCB-induced AD mice; format: in vivo, mouse (female BALB/c); conditions: DNCB group 253.5
Experimental: as §1
(§6) Before euthanasia, the mice were anesthetized, and blood samples were collected from the orbit. The blood samples of the mice in each group were analyzed using a fully automatic hematology analyzer. […] The levels of IgE and IL-4 were measured using a double-antibody sandwich enzyme-linked immunosorbent assay, according to the manufacturer's instructions.

IgE = assay: Determination of IgE in serum (ELISA) of DNCB-induced AD mice; format: in vivo, mouse (female BALB/c); conditions: DNCB group 12.65
Experimental: as §1, §6

[12] = DNCB+HSRO group, 20 g/L topical daily
[13] = DNCB+LSRO group, 5 g/L topical daily

sulfated gluco-galactooligosaccharide
mRNA level of IL-4 (IL-4 [1]): significantly decreased in a dose-dependent manner
average weight of the lymph nodes (DNCB-induced AD mice [2]; [12]): 9.45 mg
average weight of the spleen (DNCB-induced AD mice [2]; [12]): 165 mg
average weight of the lymph nodes (DNCB-induced AD mice [2]; [13]): 10.3 mg
average weight of the spleen (DNCB-induced AD mice [2]; [13]): 183 mg
mRNA level of IL-1β (IL-1β): significantly decreased in a dose-dependent manner
anticoagulant activity [3]: has anticoagulant activity
average number of mast cells [4, 12]: 26
average number of mast cells [4, 13]: 32
mRNA level of IL-8 (IL-8): significantly decreased in a dose-dependent manner
DNCB-induced weight loss (body weight) [5]: not obvious
mRNA expression of inflammatory cytokines (IL-4, IL-6, TNF-α) [6]: significantly inhibit the elevation of inflammatory cytokines induced by TNF-α/IFN-γ
mRNA level of TSLP (TSLP): significantly decreased in a dose-dependent manner
H&E staining of ear and dorsal skin (epidermal hyperplasia, hyperkeratosis, inflammatory cell infiltration) (DNCB-induced AD mice [7]): maintained the skin structure integrity, alleviated skin lesions and protected skin tissues from damage
dorsal skin inflammatory lesions (dryness, erythema, erosion, edema) (DNCB-induced AD mice [8]): effectively alleviated these symptoms
average ear skin thickness (DNCB-induced AD mice [9]; [12]): 0.33 mm
average dorsal skin thickness (DNCB-induced AD mice [9]; [12]): 545 μm
average ear skin thickness (DNCB-induced AD mice [9]; [13]): 0.375 mm
average dorsal skin thickness (DNCB-induced AD mice [9]; [13]): 606 μm
average scratching frequency (DNCB-induced AD mice [10]; DNCB+HSRO group, 20 g/L aqueous solution topical daily (100 μL back, 10 μL ear)): 58 times
average scratching frequency (DNCB-induced AD mice [10]; DNCB+LSRO group, 5 g/L aqueous solution topical daily (100 μL back, 10 μL ear)): 76 times
average level of IL-4 in serum (IL-4 [11]; [12]): 201 pg/mL
average level of IL-4 in serum (IL-4 [11]; [13]): 232 pg/mL
average level of IgE in serum (IgE; [12]): 10.01 µg/mL
average level of IgE in serum (IgE; [13]): 10.45 µg/mL
